# Results from patent US4950686A, “Anti-mycoplasma agent” (Shionogi & Co., Ltd., priority 1986, dated 1990).
# What was measured:
# [1] = tested on: Mycoplasma gallisepticum S6 (standard strain); test: Mycoplasma gallisepticum air-sac infection method in chicken, strain S6; type: in vivo, Mycoplasma gallisepticum; SPF chicken (white leghorn)
# Method in brief: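 Right air sac of 9-day-old SPF white leghorn chickens (water/feed withheld 1 day) inoculated with 24-48 h culture diluted ~100×; compound given once orally by cannula right after infection. At day 5, air-sac lesions scored 0-3 (index = right + 2×left), and organisms isolated from both air sacs and trachea.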
# [2] = tested on: Mycoplasma gallisepticum MR-1 (wild strain, tylosin-resistant); test: Anti-mycoplasma activity in vitro (MIC, broth dilution), strain MR-1; type: cell-based; settings: Mg MR-1, 37° C., 7 days
# Method in brief: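 Broth dilution in chick PPLO broth with 20% equine serum; 2-fold compound dilutions, inoculum diluted to 10^6 CCU/ml. Incubated 7 days at 37 °C; MIC recorded.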
# [3] = tested on: Mycoplasma hyopneumoniae ST-11 (standard strain); test: Anti-mycoplasma activity in vitro (MIC, broth dilution), strain ST-11; type: cell-based; settings: Mesomycoplasma hyopneumoniae, Mh ST-11; read-out: MIC
# Method in brief: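 MIC by broth dilution in Hanks' solution with 0.5% lactoalbumin, yeast, equine serum and phenol red, pH 7.4-7.6. Inoculum: 3-4-day culture, turned yellow, diluted 10-fold in broth (subcultured first if yellowing took over 4 days).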
# [4] = tested on: Mycoplasma gallisepticum T-7-T (wild strain, tylosin-resistant); test: Anti-mycoplasma activity in vitro (MIC, broth dilution), strain T-7-T; type: cell-based; settings: Mg T-7-T, 37° C., 7 days
# Method in brief: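 Broth dilution MIC in chick PPLO broth with 20% equine serum, using 2-fold agent dilutions. Inoculum of 24-48 h culture diluted to 10^6 CCU/ml before use. Incubated 7 days at 37° C.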
# [5] = 50 mg/kg × once oral, 5 mg/ml sol. b, inoculum 6.3 × 10^4
# [6] = 100 mg/kg × once oral, 10 mg/ml sol. b, inoculum 1.2 × 10^6
# [7] = 100 mg/kg × once oral, 10 mg/ml sol. b, inoculum 6.3 × 10^4
# [8] = 200 mg/kg × once oral, 20 mg/ml sol. a, inoculum 3.1 × 10^5
# [9] = 200 mg/kg × once oral, 20 mg/ml sol. c, inoculum 3.1 × 10^5
smiles,measurement,setting,value
"O=c1cccccc1O [Tropolone, tropolone]","Change of air-sac, left: + (chickens)",[1]; [5],0
same,"Change of air-sac, left: ++ (chickens)",[1]; [5],0
same,"Change of air-sac, left: +++ (chickens)",[1]; [5],0
same,"Change of air-sac, left: - (chickens)",[1]; [5],5
same,"Change of air-sac, right: + (chickens)",[1]; [5],2
same,"Change of air-sac, right: ++ (chickens)",[1]; [5],0
same,"Change of air-sac, right: +++ (chickens)",[1]; [5],0
same,"Change of air-sac, right: - (chickens)",[1]; [5],3
same,"Isolation, L (left air-sac)",[1]; [5],0
same,"Isolation, R (right air-sac)",[1]; [5],2
same,Mycoplasma Isolated Chickens,[1]; [5],2
same,Index of Disease,"[1]; 50 mg/kg × once oral, 5 mg/ml sol. b, inoculum 6.3 × 10^4, range 0-9.0",0.4
same,Index of Isolation,"[1]; 50 mg/kg × once oral, 5 mg/ml sol. b, inoculum 6.3 × 10^4, trachea ND, range 0-6.0",0.4
same,"Change of air-sac, left: + (chickens)",[1]; [6],0
same,"Change of air-sac, left: ++ (chickens)",[1]; [6],0
same,"Change of air-sac, left: +++ (chickens)",[1]; [6],0
same,"Change of air-sac, left: - (chickens)",[1]; [6],8
same,"Change of air-sac, right: + (chickens)",[1]; [6],0
same,"Change of air-sac, right: ++ (chickens)",[1]; [6],0
same,"Change of air-sac, right: +++ (chickens)",[1]; [6],0
same,"Change of air-sac, right: - (chickens)",[1]; [6],8
same,"Isolation, L (left air-sac)",[1]; [6],0
same,"Isolation, R (right air-sac)",[1]; [6],0
same,"Isolation, T (trachea)",[1]; [6],0
same,Mycoplasma Isolated Chickens,[1]; [6],0
same,Index of Isolation,"[1]; 100 mg/kg × once oral, 10 mg/ml sol. b, inoculum 1.2 × 10^6, range 0-6.0",0
same,Index of Disease,"[1]; 100 mg/kg × once oral, 10 mg/ml sol. b, inoculum 1.2 × 10^6, range 0-9.0",0
same,"Change of air-sac, left: + (chickens)",[1]; [7],0
same,"Change of air-sac, left: ++ (chickens)",[1]; [7],0
same,"Change of air-sac, left: +++ (chickens)",[1]; [7],0
same,"Change of air-sac, left: - (chickens)",[1]; [7],5
same,"Change of air-sac, right: + (chickens)",[1]; [7],1
same,"Change of air-sac, right: ++ (chickens)",[1]; [7],0
same,"Change of air-sac, right: +++ (chickens)",[1]; [7],0
same,"Change of air-sac, right: - (chickens)",[1]; [7],4
same,"Isolation, L (left air-sac)",[1]; [7],0
same,"Isolation, R (right air-sac)",[1]; [7],0
same,Mycoplasma Isolated Chickens,[1]; [7],0
same,Index of Disease,"[1]; 100 mg/kg × once oral, 10 mg/ml sol. b, inoculum 6.3 × 10^4, range 0-9.0",0.2
same,Index of Isolation,"[1]; 100 mg/kg × once oral, 10 mg/ml sol. b, inoculum 6.3 × 10^4, trachea ND, range 0-6.0",0
same,"Change of air-sac, left: + (chickens)",[1]; [8],0
same,"Change of air-sac, left: ++ (chickens)",[1]; [8],0
same,"Change of air-sac, left: +++ (chickens)",[1]; [8],0
same,"Change of air-sac, left: - (chickens)",[1]; [8],5
same,"Change of air-sac, right: + (chickens)",[1]; [8],0
same,"Change of air-sac, right: ++ (chickens)",[1]; [8],0
same,"Change of air-sac, right: +++ (chickens)",[1]; [8],0
same,"Change of air-sac, right: - (chickens)",[1]; [8],5
same,"Isolation, L (left air-sac)",[1]; [8],0
same,"Isolation, R (right air-sac)",[1]; [8],1
same,"Isolation, T (trachea)",[1]; [8],0
same,Mycoplasma Isolated Chickens,[1]; [8],1
same,Index of Isolation,"[1]; 200 mg/kg × once oral, 20 mg/ml sol. a, inoculum 3.1 × 10^5, range 0-6.0",0.2
same,Index of Disease,"[1]; 200 mg/kg × once oral, 20 mg/ml sol. a, inoculum 3.1 × 10^5, range 0-9.0",0
same,"Change of air-sac, left: + (chickens)",[1]; [9],0
same,"Change of air-sac, left: ++ (chickens)",[1]; [9],0
same,"Change of air-sac, left: +++ (chickens)",[1]; [9],0
same,"Change of air-sac, left: - (chickens)",[1]; [9],5
same,"Change of air-sac, right: + (chickens)",[1]; [9],0
same,"Change of air-sac, right: ++ (chickens)",[1]; [9],0
same,"Change of air-sac, right: +++ (chickens)",[1]; [9],0
same,"Change of air-sac, right: - (chickens)",[1]; [9],5
same,"Isolation, L (left air-sac)",[1]; [9],0
same,"Isolation, R (right air-sac)",[1]; [9],0
same,"Isolation, T (trachea)",[1]; [9],0
same,Mycoplasma Isolated Chickens,[1]; [9],0
same,Index of Isolation,"[1]; 200 mg/kg × once oral, 20 mg/ml sol. c, inoculum 3.1 × 10^5, range 0-6.0",0
same,Index of Disease,"[1]; 200 mg/kg × once oral, 20 mg/ml sol. c, inoculum 3.1 × 10^5, range 0-9.0",0
same,MIC,[2],0.39 µg/mL
same,MIC,[3],0.78 µg/mL
same,MIC,[4],0.39 µg/mL
